Key:
[1] = target: T1, 53BP1^TT (tandem Tudor domain of 53BP1, residues 1481–1603) (Homo sapiens, UniProt Q12888); experiment: Isothermal titration calorimetry (ITC) of small molecules with 53BP1TT; type: binding; conditions: 25 °C, 50 mM Tris-HCl pH 7.5, 50 mM NaCl, one-site model; read-out: Kd (apparent, ITC)
T1 construct: The tandem Tudor domain of 53BP1 (53BP1^TT, residues 1481–1603) was purified as previously described; made in house; host or cells: E. coli (only for the SAXS sample)
Method: The ITC measurements were performed at 25 °C using a MicroCal iTC200 calorimeter. 53BP1^TT and the small molecules (UNC2991, UNC3351, UNC3474) were in 50 mM Tris-HCl, pH 7.5, 50 mM NaCl. In a typical run, 53BP1^TT was in the reaction cell at a concentration of 150 to 160 μM while the small molecule, in the titration syringe at a concentration of 0.8–2 mM, was delivered as 2 μL injections every 3 min. The titrations were paired with control experiments for heat of dilution. The titration of 53BP1^TT with UNC1118 was performed using a MicroCal VP-ITC calorimeter. ITC data were fitted to a one-site model using a Levenberg-Marquardt non-linear regression algorithm programmed in the Origin 7.0 software.
Supplementary Figure 1 | Interaction of 53BP1TT with small molecules probed using isothermal titration calorimetry (ITC) and small-angle X-ray scattering (SAXS). a, ITC of the interaction of UNC2991, UNC3351 and UNC3474 with 53BP1TT. Raw titration data and integrated heat measurements are shown. Indicated apparent Kds with associated standard deviations were determined by nonlinear least-squares analysis.
1.33 and 2 mg/mL with an exposure time of 0.5 s, without and with 10-fold molar excess of UNC1118 or UNC3474. The error bars in the scattering curves were generated using PRIMUS in the data analysis software ATSAS 2.4.2 and represent mean ± standard deviation calculated from signal intensity scaling and merging for the three different 53BP1TT concentrations. The Guinier plots, dimensionless Kratky plots and pair distance distribution functions derived from the SAXS data are shown. Also shown are the crystal structures of 53BP1TT and 53BP1TT-UNC3474 overlaid to the corresponding SAXS-based ab initio molecular envelopes generated using GASBOR 2.3i. c, Interaction of UNC1118 with 53BP1TT characterized using ITC (left) and NMR spectroscopy (right).
For the ITC, raw titration data and integrated heat measurements are shown. The indicated Kd with associated standard deviation was determined by nonlinear least-squares analysis.
(1 picture or pasted object on this page, not shown here)

53BP1^TT = target: T2, 53BP1^TT (Homo sapiens, UniProt Q12888); experiment: NMR 15N relaxation measurements (R1, R2, NOE); conditions: 1 mM 15N-labeled 53BP1TT, saturating amounts of small molecule
T2 construct: The tandem Tudor domain of 53BP1 (53BP1^TT, residues 1481–1603) was purified as previously described; made in house; host or cells: E. coli (only for the SAXS sample)
T2 sequence (Q12888 1481-1603): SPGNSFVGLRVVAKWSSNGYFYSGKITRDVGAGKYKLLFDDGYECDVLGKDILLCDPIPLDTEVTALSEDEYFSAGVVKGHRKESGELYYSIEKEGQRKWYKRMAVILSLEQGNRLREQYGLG
Method: The NMR relaxation measurements were carried out with 1 mM ^15N-labeled 53BP1^TT, 53BP1^TT-PN, and 53BP1^TT in the presence of saturating amounts of UNC3474 and UNC1118 in 25 mM sodium phosphate, pH 7.0, 100 mM NaCl, 1.5 mM NaN3, 0.3 mM DSS, 90% H2O/10% D2O, using standard experiments[58],[59]. The longitudinal and transverse ^15N relaxation rates R1 and R2 were determined using 12 and 14 relaxation delay times of 0.1–2 s and 4–120 ms, respectively. The first data point of each set of measurements was repeated for error assessment. The ^15N-{^1H} nuclear Overhauser ratios were obtained from a reference experiment without proton irradiation and a steady-state experiment with proton irradiation for 3 s.

[2] = tested on: WT 53BP1^FFR IRIF in U2OS cells; experiment: 53BP1FFR ionizing radiation-induced foci (IRIF) formation, immunofluorescence, WT; type: cell-based, Homo Sapiens; conditions: 1 Gy X-ray, different concentrations of UNC3474
Source text: The foci-forming region (FFR; residues 1220–1711) of wild-type 53BP1 and mutants E1549P/D1550N (53BP1^FFR-PN) and E1549C/E1567C (53BP1^FFR-CC) were inserted into the retroviral vector POZ. The primers used to introduce the E1549P/D1550N mutations are: […] (forward) and […] (reverse). The primers used to introduce the E1549C/E1567C mutations are: […] (forward) and […] (reverse). The 53BP1^FFR constructs were stably expressed at a moderate level in U2OS cells. To probe the effect of UNC3474 on 53BP1^FFR IRIF formation, U2OS cells were grown on glass coverslips, pre-incubated for 1 h with various concentrations of UNC3474 and exposed to 1 Gy of X-ray radiation. After 1 h, the cells were fixed in 4% formaldehyde in PBS for 15 min at room temperature and blocked and permeabilized for 1 h in PBS containing 0.3% Triton X-100, 1% BSA, 10% fetal bovine serum. […]
Cell samples were subjected to z-stack scanning with a total depth of 5 μm to comprehensively capture all 53BP1^FFR and γH2A.X IRIF within the cell nuclei, which were fluorescently labeled with DAPI. […] To assess the quantification of 53BP1^FFR and γH2A.X foci per nuclei, a customized CellProfiler (version 3.0)[68] pipeline was employed. […]

T1 sequence (Q12888 1481-1603): as above

CC(C)c1cccc(C(=O)NCCCNC(C)(C)C)c1 [UNC3474]
Kd [1]: 1000 ± 300 nM | effect on 15N relaxation rates of 53BP1TT (53BP1^TT): increase in R2 relaxation rates | WT 53BP1FFR IRIF formation [2]: inhibited in a dose-dependent manner

Source: PMC10541411 (Nature Communications, 2023)
